Assay results reported in the supplement of paper PMC10307832.

Assays:
Assay in all cases: relative viability (nuclei count vs DMSO), 5 days (fraction); higher = more cells survive
Bexarotene + Foretinib = compound: C=C(c1ccc(C(=O)O)cc1)c1cc2c(cc1C)C(C)(C)CCC2(C)C [Bexarotene] + COc1cc2c(Oc3ccc(NC(=O)C4(C(=O)Nc5ccc(F)cc5)CC4)cc3F)ccnc2cc1OCCCN1CCOCC1 [Foretinib] (partner 0.25 µM)
In short: (§1)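 One day after seeding in 1536-well plates, lung cancer cell lines were dosed by pin tool. Dosing was either single-drug or a fixed anchor-drug dose plus five library-drug doses (not always all listed) in √10 steps. After 5 days, nuclei were stained in one fix-and-stain step and counted on 4× images, and relative viability is the nuclei count of treated wells over that of vehicle wells, given as the median of duplicate plates.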

Bexarotene + Pictilisib = compound: C=C(c1ccc(C(=O)O)cc1)c1cc2c(cc1C)C(C)(C)CCC2(C)C [Bexarotene] + CS(=O)(=O)N1CCN(Cc2cc3nc(-c4cccc5[nH]ncc45)nc(N4CCOCC4)c3s2)CC1 [Pictilisib] (partner 1 µM)
In short: as §1

Bexarotene + AZD7762 = compound: C=C(c1ccc(C(=O)O)cc1)c1cc2c(cc1C)C(C)(C)CCC2(C)C [Bexarotene] + NC(=O)Nc1cc(-c2cccc(F)c2)sc1C(=O)N[C@H]1CCCNC1 [AZD7762] (partner 0.2 µM)
In short: as §1

Bexarotene + Vorinostat = compound: C=C(c1ccc(C(=O)O)cc1)c1cc2c(cc1C)C(C)(C)CCC2(C)C [Bexarotene] + O=C(CCCCCCC(=O)Nc1ccccc1)NO [Vorinostat] (partner 1 µM)
In short: as §1

Cell Line	relative viability (Bexarotene + Foretinib; first compound 0.08 µM)	relative viability (Bexarotene + Foretinib; first compound 0.253 µM)	relative viability (Bexarotene + Foretinib; first compound 0.8 µM)	relative viability (Bexarotene + Foretinib; first compound 2.53 µM)	relative viability (Bexarotene + Foretinib; first compound 8 µM)	relative viability (Bexarotene + Pictilisib; first compound 0.08 µM)	relative viability (Bexarotene + Pictilisib; first compound 0.253 µM)	relative viability (Bexarotene + Pictilisib; first compound 0.8 µM)	relative viability (Bexarotene + Pictilisib; first compound 2.53 µM)	relative viability (Bexarotene + Pictilisib; first compound 8 µM)	relative viability (Bexarotene + AZD7762; first compound 0.08 µM)	relative viability (Bexarotene + AZD7762; first compound 0.253 µM)	relative viability (Bexarotene + AZD7762; first compound 0.8 µM)	relative viability (Bexarotene + AZD7762; first compound 2.53 µM)	relative viability (Bexarotene + AZD7762; first compound 8 µM)	relative viability (Bexarotene + Vorinostat; first compound 0.08 µM)	relative viability (Bexarotene + Vorinostat; first compound 0.253 µM)	relative viability (Bexarotene + Vorinostat; first compound 0.8 µM)	relative viability (Bexarotene + Vorinostat; first compound 2.53 µM)	relative viability (Bexarotene + Vorinostat; first compound 8 µM)
201T	1.17	1.25	1.17	1.06	0.976	0.745	0.631	0.612	0.639	0.596	0.796	0.612	0.714	0.591	0.514	1.03	0.997	0.894	0.888	0.802
NCI-H838	1.14	1.03	1.06	1.05	1.01	0.557	0.5	0.51	0.638	0.578	1.03	1.09	0.989	0.978	0.938	0.764	0.767	0.742	0.585	0.693
PC-14	1.12	1.08	0.973	1.01	0.934	0.663	0.724	0.7	0.704	0.565	0.357	0.436	0.415	0.299	0.338	0.882	0.844	0.643	0.741	0.636
LK-2	1.42	1.27	1.54		1.68	0.933	0.711	0.824	0.659	0.785	0.675	0.516	0.547	0.433	0.418	0.337	0.278	0.342	0.277	0.332
NCI-H1944	1.25	1.09	1.04	1.16	0.965	0.388	0.391	0.336	0.374	0.37	0.738	0.733	0.749	0.694	0.739	0.74	0.683	0.669	0.675	0.532
HCC-78	0.54	0.499	0.547	0.523	0.468	0.228	0.196	0.215	0.182	0.194	0.638	0.391	0.542	0.554	0.638	0.425	0.523	0.513	0.402	0.459
NCI-H2405	1.17	1.05	0.758	1.05	1.02	0.58	0.455	0.326	0.538	0.523	0.887	0.681	0.711	0.761	0.801	1.06	1.01	0.839	0.755	0.951
EMC-BAC-2	0.912	1.09	0.998	0.964	0.993	0.618	0.561	0.52	0.554	0.469	1.17	1.09	1.06		1.08	0.628	0.462	0.537		0.522
NCI-H596	0.781	0.61	0.813	0.853	0.858	0.397	0.441	0.299	0.363	0.426	1.19	1.01	1.01	0.976	1.02	0.655	0.69	0.414	0.533	0.602
LCLC-97TM1	0.891	1	0.887	0.933	0.969	0.265	0.188	0.209	0.214	0.213	0.252	0.35	0.398	0.263	0.237	1.02	0.804	0.586	0.656	0.678
H3255	1.01	0.821	0.906	0.779	0.748	0.574	0.504	0.607	0.493	0.528	0.948	0.941	0.975	0.851	1.05	0.759	0.913	0.843	0.787	0.869
LXF-289	1.18	1.02	1.02	1.09	1.22	0.798	0.68	0.711	0.581	0.604	1.21	1.34	1.32	1.37	1.48	0.906	0.907	0.861	0.789	0.935
LC-2-ad	0.976	1.01	0.969	0.982	0.893	0.809	0.473	0.433	0.503	0.381	0.87	0.907	0.875	0.867	0.928	0.82	0.845	0.744	0.703	0.665
A-427	1.14	0.932	0.941	1.05	0.868	0.79	0.667	0.613	0.537	0.569	0.79	0.71	0.736	0.691	0.688	0.861	0.81	0.83	0.746	0.903
NCI-H322M	1.06	1.14	0.946	0.977	0.978	0.573	0.408	0.544	0.514	0.502	0.518	0.645	0.585	0.548	0.568	0.978	0.983	0.945	0.757	0.934
HCC-366	0.94	0.989	0.962	0.969	0.834	0.23	0.178	0.165	0.141	0.29	0.412	0.397	0.284	0.279	0.358	0.361	0.487	0.329	0.276	0.328
